Consider four compounds from patent publication US20220403048A1, “BINDING MOLECULES TO ARGINASE II [ARG2]” (Cancer Research Technology Limited, priority 2019, published 2022).

As a reminder, the Kd is the concentration at which binding is half-saturated. Usually Km stands for the concentration of substrate that gives half-maximal velocity. By EC50 is commonly meant the concentration at which the effect is half-maximal. A higher EC50 goes with lower potency in that assay. As a reminder, the IC50 is the concentration that inhibits the measured activity by half.

Experiment [1] concerns the target both ARG isoforms. The note with it: cited from earlier work; for Kd: both ARG isoforms at physiologic pH, read-out: binding constant (KD).
The target in experiment [2] is T1, trimeric human ARG2 (Homo sapiens, UniProt P78540).
T1 construct: human ARG2 (aa23-354); His10 (C); made in house; host or cells: E. coli BL21 (DE3)
T1 sequence (P78540 23-354): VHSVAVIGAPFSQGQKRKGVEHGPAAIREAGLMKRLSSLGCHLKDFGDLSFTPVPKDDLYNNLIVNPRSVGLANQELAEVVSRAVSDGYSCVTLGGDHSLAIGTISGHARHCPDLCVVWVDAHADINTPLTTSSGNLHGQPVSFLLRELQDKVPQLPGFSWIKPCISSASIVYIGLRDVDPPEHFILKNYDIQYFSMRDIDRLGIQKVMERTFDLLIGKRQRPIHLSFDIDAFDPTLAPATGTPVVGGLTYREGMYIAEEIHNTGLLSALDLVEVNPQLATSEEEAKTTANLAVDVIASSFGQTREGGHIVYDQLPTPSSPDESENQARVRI
The experiment is described as follows: Human trimeric ARG2 enzyme inhibition assay (urea production). Type of experiment: biochemical. Here is the method: Unpurified anti-ARG2 scFv fragments from periplasmic preparations were screened in an ARG2 enzyme inhibition assay using a Pherastar plate reader (BMG Labtech, Germany). In this assay, the ability of unpurified scFv to inhibit the enzymatic activity of trimeric ARG2 was determined by measuring the production of urea, the product of L-arginine turnover by ARG2.
Selection outputs were screened as unpurified bacterial periplasmic extracts containing scFv, prepared in 200 mM TES buffer pH 7.4, 0.5 mM EDTA and 0.5 M sucrose. 10 μl of unpurified scFv were added to a Greiner Bio-One® 384 well assay plate (Greiner Bio-one, UK; cat: 781901). […]
Urea was detected by the simultaneous addition of equal volumes of O-Phthaldialdehyde (1.5 mM O-Phthaldialdehyde, 7% H2SO4, 0.03% Brij L23) and N-(1-Napthyl)ethylenediamine (1.66 mM N-(1-Napthyl)ethylenediamine, 81 mM Boric acid, 21% H2SO4, 0.03% Brij L23) followed by an 18 minute incubation at room temperature before the colorimetric product was quantified on the Pherastar by measuring absorbance at 505 nm. […]
Data were analysed by calculating % maximum (max) control for each sample using the 505 nm absorbance data. % max control was determined according to equation 2. […]
Data were again analysed by calculating % Max control values for each sample. […]

Experiment [3] deals with T2, ARG2 (Homo sapiens, UniProt P78540).
T2 sequence (P78540 23-354): T1 sequence (P78540 23-354)
The experiment in a line: T cell proliferation assay (BrdU, 72 hours) with exogenous ARG2. Type of experiment: cell-based. The following applies: In Absence of rhARG2. The method, then: (§1) This assay served to provide in vitro evidence of functional efficacy for each antibody.
(§2) Briefly, Leukocyte cones (NHS Blood and Transplant, Watford, UK) underwent Ficoll Plaque (GE, Sweden; Cat: 17-1440-02) gradient separation, PBMC's were extracted and pan T cell population isolated by negative selection using the Human T Cell Enrichment Kit (Stemcell Technologies, France; Cat: 19051) according to the manufacturer's instructions.
(§3) 40000 cells/well were seeded in complete growth media (RMPI 1640, 5% Human Serum Albumin) into a 96 well clear TC treated microplate (Greiner-Bio One, Germany; Cat: 655180). T Cells were activated by the addition of ImmunoCult CD3/CD28 (Stemcell Technologies, France; Cat: 10971) at a dilution of 1:40 directly into wells and the plate incubated 37° C., 5% CO2 for 45 minutes.
(§4) To determine EC50's of test antibodies, a dilution series was created in sterile TBS at 8× the final assay concentration was added to the assay plate containing cells. Plate was incubated for 30 minutes at 37° C., 5% CO2.
(§5) ARG2 was added to relevant wells of the plate at a final concentration of 15 μg/ml. The equivalent volume of ARG2 vehicle and test antibody vehicle was added to relevant control wells. […]
(§6) Calculated data was expressed as % of control (Equation 3) and graphical plots were constructed using a four parameter fit and EC50's determined using model 205 in XLFit (IDBS, UK). […]

The target of experiment [4] is T3, monomeric ARG2 (Homo sapiens, UniProt P78540, E275Q).
T3 construct: human ARG2 (aa23-354); His10 (C); made in house; host or cells: E. coli
T3 sequence (P78540 23-354 E275Q): T1 sequence (P78540 23-354) with E253Q
The experiment in a line: Human monomeric ARG2 enzyme inhibition assay. In kind it is biochemical. The note with it: purified recombinant human IgG1, FIG. 5. The method, then:
ARG2 specific recombinant IgG1 were screened for their ability to inhibit enzymatic activity of monomeric ARG2. In this assay, the ability of ARG2 specific recombinant IgG1 to inhibit the enzymatic activity of monomeric ARG2 was determined by measuring the production of urea, the product of L-arginine turnover by monomeric ARG2.
IC50 values were determined by testing a dilution series of the ARG2 specific recombinant IgG1, prepared in TBS.
10 μl of ARG2 specific recombinant IgG1 (dilution series) were added to a Greiner Bio-One® 384 well assay plate (Greiner Bio-one, UK; cat: 781901). […]
Urea was detected by the simultaneous addition of equal volumes of O-Phthaldialdehyde (1.5 mM O-Phthaldialdehyde, 7% H2SO4, 0.03% Brij L23) and N-(1-Napthyl)ethylenediamine (1.66 mM N-(1-Napthyl)ethylenediamine, 81 mM Boric acid, 21% H2SO4, 0.03% Brij L23) followed by an 18 minute incubation at room temperature before the colorimetric product was quantified on the Pherastar by measuring absorbance at 505 nm.
ARG2 specific recombinant IgG1 were tested alongside N-Hydroxyl-L-Arginine (a small molecule competitive inhibitor of ARG2) as a positive control and NIP228 (irrelevant isotype control antibody) as a negative control. Data points were plotted and IC50 values determined using a four parameter fit in GraphPad Prism (FIG. 5).

In experiment [5] the target is T4, THP-1 lysate derived human trimeric ARG2 (Homo sapiens, UniProt P78540).
T4 construct: expressed in transfected cells; host or cells: THP-1 cells overexpressing human ARG2 (cell lysate)
T4 sequence (P78540 23-354): T1 sequence (P78540 23-354)
The experiment is described as follows: THP-1 lysate derived human ARG2 enzyme inhibition assay. In kind it is biochemical. Here is the method: Anti-ARG2 IgGs were tested for their ability to inhibit mammalian expressed human ARG2 produced in transfected THP-1 cells. To do this cell lysates were prepared from THP-1 cells overexpressing human ARG2 and from wild type THP-1 cells. 350 million cells were suspended in 3 ml tris buffered saline (25 mM Tris+150 mM sodium chloride in dH2O, pH 7.4) and cell lysates prepared by passing through a 26G needle 20 times. A BCA assay was used to measure the protein concentration in the lysate. […] Antibodies were tested alongside N-Hydroxyl-L-Arginine (a small molecule competitive inhibitor of ARG2) as a positive control and CEA6 (irrelevant isotype control antibody) as a negative control. Data points were plotted and IC50 values determined using a four parameter fit in GraphPad Prism (FIG. 11, Table 13).
Anti-ARG2 IgGs were tested for their ability to inhibit to mammalian expressed human ARG2 produced in transfected THP-1 cells. […] Urea detection reagents, O-Phthaldialdehyde (1.5 mM O-Phthaldialdehyde, 7% H2SO4, 0.03% Brij L23) and N-(1-Napthyl)ethylenediamine (1.66 mM N-(1-Napthyl)ethylenediamine, 81 mM Boric acid, 21% H2SO4, 0.03% Brij L23) were mixed 1:1 just prior to use and 80 μl/well were added, incubated for 1 hour at room temperature and absorbance at 505 nm was read on a Pherastar plate reader. […]

Experiment [6] deals with T2, ARG2. The experiment is described as follows: T cell proliferation assay (BrdU, 72 hours) with exogenous ARG2. In kind it is cell-based. Further details: human ARG2 (aa23-354); His10 (C); made in house; host or cells: E. coli BL21 (DE3). The note with it: In Presence of rhARG2, NHLA value at 0.444 mM. The method, then:
as §1, §2, §3, §4, §5, §6

Substitutions are numbered along the chain they refer to. Read-outs that look alike come from different tables or passages of the source. Marks after values point to notes of the source that are not given here.

For the compound `N[C@@H](CCCCB(O)O)C(=O)O` [ABH, 2(S)-amino-6-boronohexanoic acid], the Kd in experiment [1] is about 300 nM.

As for `N[C@@H](CSCCB(O)O)C(=O)O` [BEC, S-(2-boronoethyl)-L-cysteine], the Kd in experiment [1] is about 300 nM.

`N=C(N)NCCC[C@H](N)C(=O)O` [L-arginine]: the Michaelis constant (Km) in experiment [1] (natural substrate of arginase) is 5 mM.

Take `NC(=NO)NCCC[C@H](N)C(=O)O` [NHLA, NG-Hydroxy-L-arginine, reference compound]: the “inhibition of the activity of human trimeric ARG2” value is listed as “able to inhibit” in experiment [2] (purified recombinant human IgG1, FIG. 3) and “able to inhibit” in experiment [2] (purified scFv, FIG. 2). This compound also returned an EC50 in experiment [3] of under 1800 nM. The “Maximum % Proliferation” value is listed as 80% in experiment [3] and 49* % in experiment [6]. The “inhibition of the activity of human monomeric ARG2” value in experiment [4] was “able to inhibit”. For the same compound, the IC50 in experiment [5] (methods of section 2.8, FIG. 16, read-out: THP-1 ARG2 EIA IC50) amounted to 12900 nM; in experiment [5] (recombinant human IgG1, lysate without plasma (section 3.3), FIG. 13, read-out: THP-1 lysate ARG2 EIA IC50), 4750 nM.
